From patent US12427122B2, “Method of making transdermal amphetamine composition with low levels of carbamate” (Noven Pharmaceuticals, Inc., priority 2021, dated 2025)

Assay: Stability of the amphetacarbamate moiety in solution
Format: physicochemical
Text: As noted above, the existence or identity of amphetamine carbamate or amphetacarbamate per se were not known. Rather, amphetamine carbamate was identified and characterized by analyzing crystals isolated from drug-containing polymer matrices of transdermal amphetamine compositions, and amphetacarbamate was identified the work done to identify and characterize amphetamine carbamate. In addition to the inventions described herein pertaining to transdermal amphetamine compositions and amphetamine transdermal delivery systems, methods for detecting and quantifying amphetamine carbamate had to be developed. […] Thus, for example, typical HPLC assays could not be used.

Substance: (S)-1-phenylpropan-2-ammonium-(S)-(1-phenylpropan-2-yl)carbamate [amphetamine carbamate]
- stability of amphetacarbamate moiety: labile and readily converts to amphetamine
